Key:
[1] = tested on: synthase of nitrogen oxide (NOC); assay: Morphine abstinence model: activity of synthase of nitrogen oxide (NOC), radiometric [3H]L-citrulline method; format: in vivo, rats Wistar; settings: 20.0 mg/kg intramuscularly; for Activity of NOC: Mesencephalon: control 2.18 ± 0.09; for Activity of NOC: Hypothalamus: control 5.37 ± 0.20
[2] = tested on: embryonic fibroblasts of mouse NIH-3T3; assay: Effect on endocellular pHi of fibroblasts (microspectrofluorimetry with FDA / BCECF-AM); format: cell-based; settings: for rise of pHi: fibroblasts in an attached spread state; for change of pHi: medium DME without blood serum, 20 minutes; for increase of pHi of cytosol: medium with 10.0% blood serum, 20 minutes after addition
Procedure: The effect of the compounds according to the invention on the endocellular pH, embryonic fibroblasts of mouse NIH-3T3 supplied by the All-Russian Collection of Cellular Cultures of the Institute of Cytology of the Russian Academy of Sciences St. Petersburg was investigated. The cells were grown in the DMEM (Sigma) medium containing 2.2 g/l of sodium bicarbonate with addition of 80.0 mkg/ml of gentamicin and 10.0% embryonal veal serum at a temperature of 37° C. in an atmosphere containing 5.0% of carbon dioxide. For these experiments use was also made of a medium buffer with 5.0 mM of HEPES and 15.0 mM of sodium bicarbonate without serum or with addition of 5.0% serum. The cells were calculated with the help of a hemocytometer. A share of the dead cells was determined by colouring trypan blue.
The measurements of the endocellular pHi were carried out with the help of colorants FDA (Sigma) and BCECF-AM (Calbiochem) on a microspectrofluorimeter by a standard technique (Koshevoy Yu. V., Akatov V. S., Grobova M. E. Microspectrofluorimeter for measuring endocellular pH (micro pH)”. Devices and equipment for studies in the field of physical-and-chemical biology and biotechnology. Pushchino, 1990. P. 8-14).
The cells at a temperature of 37° C. were colored within 5 minutes with 5.0 mkM PDA that before the colouring was prepared from a 10.0 mM solution in acetone by dilution for 30 minutes in a phosphatic buffer to 0.1 mM or 2.0 mkM 1.0 mM solution BCECF-AM in DMSO.
The two-wave method of determining pHi was used based on the ratio intensities of fluorescence of the cells on two wavelengths (Akatov V. S. et all), “Endocellular pH and substrate dependence of proliferation of fibroblasts of Chinese hamster, Cytology, 1991, 33 (7), p. 86-94). The fluorescence was excited by light at λ=490 nm, the emission was recorded simultaneously with two photomultipliers on wavelengths λ=535 nm and λ=570 nm. The K-ratio of the fluorescence on two wavelengths was determined with a deduction of the background fluorescence of the medium near the investigated cells for 40-60 individual cells, which are then averaged taking into account the measurement error. A thermostatically controlled table was used that allowed measurements to be conducted at a temperature of 37° C. An account was taken for the photodynamic damage of the pigmented cells during long-time continuous illumination by excited light. The readings were taken from a section of the preparation exposed to light for not more than 5 minutes.
The calibration curves for determining the absolute pHi values by magnitude K were constructed using the Thomas technique (Thomas J. A., Bushbaum R. N., Zimniak A. w Racker E. “Intracellular pH measurements in Ehrlich ascites tumor cells utilizing spectroscopic probe generated in situ”, Biochemistry, 1979, v. 18, p. 2210-2218), for which case the pigmented cells treated for 5-10 minutes with carboxyacidic nigericyn (Calbiochem) at a concentration of 5-10 mkg/ml was placed in a solution with a high content of potassium—130 mM KCl, 1.0 mM MgCl2, 20.0 mM of HEPES) and with pH values from 6.2 to 7.6. The K values were measured in the media with different pH assuming that pHi of the cells equals to the pH of the medium due to the action of nigericyn, which exchanges potassium ions for protons and at a high content of potassium in the medium counterbalances the pH of the medium and cells. Calibration curves were used based on the fluorescence of same medium with addition of 5.0 mkM of fluorescence or BCECF were used to the control the stability of the of the instrument readings.
The cells were colored by pigment BCECF-AM and pHi was measured 10 minutes after incubation in the medium with an appropriate pH value. […]

[3] = Electrochemical activity: polarographic reduction on mercury dripping electrode; format: physicochemical; settings: for number of electrons participating in the reduction reaction: calculated with Geirovsky-Ilkovich equation; for i: 2.0% sodium chloride background, 9·10^−4 M; for i / −E1/2: 37° C., forward trace, average for the group of compounds; for −E1/2: vs SCE; for half-wave potential more positive at reverse stroke compared to forward stroke: polarograms of reverse stroke

Row | SMILES | Activity of NOC: Mesencephalon ([1]; Control + Compound) | Activity of NOC: Hypothalamus ([1]; Control + Compound) | Activity of NOC: Mesencephalon ([1]; Control + Morphine + compound) | Activity of NOC: Hypothalamus ([1]; Control + Morphine + compound) | rise of pHi ([2]; 2.0 mkg/ml, on the average) [unit pHi] | rise of pHi ([2]; 20.0 mkg/ml, on the average) [unit pHi] | change of pHi ([2]; 0.02 mkg/ml) | change of pHi ([2]; 0.2 mkg/ml) | change of pHi ([2]; 2.0 mkg/ml, on the average) [unit pHi] | change of pHi ([2]; 20.0 mkg/ml, on the average) [unit pHi] | change of pHi ([2]; 200 mkg/ml) | number of electrons participating in the reduction reaction [3] | i ([3]; pH 7.0) [mkA] | −E1/2 ([3]; pH 7.0) [V] | i ([3]; pH 7.2) [mkA] | −E1/2 ([3]; pH 7.2) [V] | i ([3]; pH 7.4) [mkA] | −E1/2 ([3]; pH 7.4) [V] | i ([3]; pH 7.6) [mkA] | −E1/2 ([3]; pH 7.6) [V] | further results
1 | O=c1[nH][nH]c(=O)c2ncccc12.[Li] [Compound 6, lithium salt of pyrido[2,3-d]-6H-pyridazine-5,8-dione] | 2.84 ± 0.31 pmol/min/mg of protein | 5.93 ± 0.27 pmol/min/mg of protein | 1.99 ± 0.31 pmol/min/mg of protein | 5.24 ± 0.24 pmol/min/mg of protein | – | – | – | – | – | – | – | – | – | – | – | – | – | – | – | – | –
2 | Nc1cccc2c(=O)[nH][nH]c(=O)c12.[Na] [Compound 15, sodium salt of 5-amino-benzo[d]-3H-pyridazine-1,4-dione] | 2.60 ± 0.29 pmol/min/mg of protein | 5.45 ± 0.24 pmol/min/mg of protein | 1.83 ± 0.23 pmol/min/mg of protein | 5.26 ± 0.28 pmol/min/mg of protein | 0.10 | 0.07 | no effect was found | no effect was found | 0.08 | 0.08 | no effect was found | 4.09 | 0.23 ± 0.03 | 0.092 ± 0.02 | 0.30 ± 0.01 | 0.09 ± 0.01 | 0.29 ± 0.02 | 0.092 ± 0.02 | 0.31 ± 0.02 | 0.09 ± 0.01 | change of pHi ([2]; 1000 mkg/ml): no effect was found; increase of pHi of cytosol ([2]; 0.02 mkg/ml): do not initiate a change of pH; increase of pHi of cytosol ([2]; 0.2 mkg/ml, on the average): 0.1 unit pH; increase of pHi of cytosol ([2]; 2.0 mkg/ml, on the average): 0.12 unit pH; increase of pHi of cytosol ([2]; 20.0 mkg/ml): do not initiate a change of pH; half-wave potential more positive at reverse stroke compared to forward stroke [3]: 30.0 mV
3 | O=c1[nH]n([C@@H]2O[C@H](CO)[C@@H](O)[C@H]2O)c(=O)c2nc(O)cnc12.[Na].[Na] [Compound 23, disodium salt of 2-hydroxy-7-(β-D-ribofuranosile)pyrazine[2,3—Cl]-6H-pyridazine-5,8-dione] | – | – | – | – | 0.10 | 0.07 | no effect was found | no effect was found | 0.08 | 0.08 | no effect was found | 3.72 | 0.32 ± 0.03 | 0.16 ± 0.02 | 0.33 ± 0.04 | 0.19 ± 0.02 | 0.34 ± 0.03 | 0.175 ± 0.01 | 0.34 ± 0.02 | 0.16 ± 0.015 | change of pHi ([2]; 1000 mkg/ml): no effect was found; increase of pHi of cytosol ([2]; 0.02 mkg/ml): do not initiate a change of pH; increase of pHi of cytosol ([2]; 0.2 mkg/ml, on the average): 0.1 unit pH; increase of pHi of cytosol ([2]; 2.0 mkg/ml, on the average): 0.12 unit pH; increase of pHi of cytosol ([2]; 20.0 mkg/ml): do not initiate a change of pH; half-wave potential more positive at reverse stroke compared to forward stroke [3]: 20.0 mV
4 | O=c1[nH][nH]c(=O)c2nccnc12.[Li] [Compound 25, lithium salt of pyrazine[2,3-d]-6H-pyridazine-5,8-dione] | 2.65 ± 0.43 pmol/min/mg of protein | 5.88 ± 0.27 pmol/min/mg of protein | 1.97 ± 0.27 pmol/min/mg of protein | 5.23 ± 0.27 pmol/min/mg of protein | – | – | – | – | – | – | – | 3.72 | 0.32 ± 0.03 | 0.16 ± 0.02 | 0.33 ± 0.04 | 0.19 ± 0.02 | 0.34 ± 0.03 | 0.175 ± 0.01 | 0.34 ± 0.02 | 0.16 ± 0.015 | half-wave potential more positive at reverse stroke compared to forward stroke [3]: 20.0 mV
5 | Nc1ncc2c(=O)[nH][nH]c(=O)c2n1 [Compound 36, 2-amino-pyrimido[4,5-d]-6H-pyridazine-5,8-dione] | – | – | – | – | 0.10 | 0.07 | no effect was found | no effect was found | 0.08 | 0.08 | no effect was found | 3.5 | 0.30 ± 0.05 | 0.08 ± 0.02 | 0.26 ± 0.02 | 0.085 ± 0.015 | 0.30 ± 0.03 | 0.085 ± 0.02 | 0.30 ± 0.02 | 0.09 ± 0.02 | change of pHi ([2]; 1000 mkg/ml): no effect was found; increase of pHi of cytosol ([2]; 0.02 mkg/ml): do not initiate a change of pH; increase of pHi of cytosol ([2]; 0.2 mkg/ml, on the average): 0.1 unit pH; increase of pHi of cytosol ([2]; 2.0 mkg/ml, on the average): 0.12 unit pH; increase of pHi of cytosol ([2]; 20.0 mkg/ml): do not initiate a change of pH
6 | O=c1[nH][nH]c(=O)c2c(Br)ncnc12.[K] [Compound 37, potassium salt of 4-bromine-pyrimido[4,5-D]-6H-pyridazine-5,8-dione] | 2.62 ± 0.27 pmol/min/mg of protein | 5.61 ± 0.22 pmol/min/mg of protein | 1.85 ± 0.30 pmol/min/mg of protein | 5.59 ± 0.22 pmol/min/mg of protein | – | – | – | – | – | – | – | – | – | – | – | – | – | – | – | – | –

From patent US8592421B2, “Cyclic bioisosters of purine system derivatives and a pharmaceutical composition based thereon” (priority 2003, dated 2013)
